In publication PMC4896453 (PLoS ONE, 2016):

Assays:
[1] = target: T1, Delta receptor (CHOhDelta) (Homo sapiens, UniProt P41143); test: Displacement binding of [3H]-DPN, CHOhDelta membranes; conditions: SEM
T1 construct: expressed in transfected cells; host or cells: CHO (Chinese Hamster Ovary)
Experimental: (§1) In the radioligand displacement binding assays, homogenization/wash buffer consisting of 50 mM Tris-HCl pH to 7.4 with KOH, for CHOhMu, CHOhDelta and CHOhKappa or additional 5 mM MgSO4 for CHOhNOP was used. Homogenisation buffer (50 mM Tris and 0.2 mM EGTA pH 7.4 with NaOH) was used in GTPγ[^35S] assays. Membranes were centrifuged at 20374 g for 10 min at 4°C. This process was repeated at least three times. The resulting pellet was resuspended in an appropriate amount of the necessary buffer and the protein concentration was determined by Lowry assay.
(§2) Samples were incubated for 1 hr at room temperature and reactions were terminated by vacuum filtration, onto PEI-soaked Whatman GF/B filters, using a Brandel harvester.

[2] = target: T2, Kappa receptor (CHOhKappa) (Homo sapiens, UniProt P41145); test: GTPγ[35S] binding, CHOhKappa membranes; assay type: biochemical
T2 construct: expressed in transfected cells; host or cells: CHO (Chinese Hamster Ovary)

[3] = target: T2, Kappa receptor (CHOhKappa); test: Displacement binding of [3H]-DPN, CHOhKappa membranes; conditions: SEM
Experimental: as §1, §2

[4] = target: T3, human NOP receptor (NOP-RLuc/β-arrestin 2-RGFP) (Homo sapiens, UniProt P41146); test: BRET NOP-RLuc/β-arrestin 2-RGFP interaction, HEK-293 cells; assay type: cell-based
T3 construct: expressed in transfected cells; host or cells: HEK-293 (retroviral expression; whole cells)

[5] = target: T4, human Mu receptor (Mu-RLuc/β-arrestin 2-RGFP) (Homo sapiens, UniProt P35372); test: BRET Mu-RLuc/β-arrestin 2-RGFP interaction, SH-SY5Y cells; assay type: cell-based
T4 construct: expressed in transfected cells; host or cells: SH-SY5Y (retroviral expression; whole cells)

NOP receptor (CHOhNOP) [6] = target: T5, NOP receptor (CHOhNOP) (Homo sapiens, UniProt P41146); test: Displacement binding of [3H]-UFP-101, CHOhNOP membranes
T5 construct: expressed in transfected cells; host or cells: CHO (Chinese Hamster Ovary)
Experimental: as §1, §2

[7] = target: human NOP receptor (NOP-RLuc/Gβ1-RGFP) (Homo sapiens, UniProt P41146); test: biochemical; assay type: biochemical
Mu receptor (CHOhMu) [8] = target: T6, Mu receptor (CHOhMu) (Homo sapiens, UniProt P35372); test: Displacement binding of [3H]-DPN, CHOhMu membranes; conditions: SEM
T6 construct: expressed in transfected cells; host or cells: CHO (Chinese Hamster Ovary)
Experimental: as §1, §2

rats = test: Rota-rod test after intrathecal infusion; assay type: in vivo, rat; conditions: same range of doses (0.1–1 nmol), data not shown
Experimental: For all the experiments described below, male Sprague-Dawley rats (Harlan, Varese, Italy), weighing approximately 280-300g at the beginning of the experimental procedure, were used. Animals were housed in CeSAL (Centro Stabulazione Animali da Laboratorio, University of Florence) and used at least one week after their arrival. One rat was housed per cage (size 26x41 cm); animals were fed with standard laboratory diet and tap water ad libitum, and kept at 23±1°C with a 12 h light/dark cycle, light at 7 a.m. […] All animals were monitored daily using a scoring system (based on: Appearance, Food and Water Intake, Clinical Signs, Natural Behaviour and Provoked Behaviour. Maximum score is 20 and animals reaching 10 are euthanized. In the experiments reported here no animals reached this score and none died before the end of the experiment) and at the end of the experiment were euthanized by CO2 overdose. […]
Rota-rod apparatus (Ugo Basile, Varese, Italy) consisted of a base platform and a rotating rod with a diameter of 6 cm and a non-slippery surface. […] The integrity of motor coordination was assessed on the basis of the number of falls from the rod in 60s measured 15, 30, 45, 60, 90, 120 and 180 min after treatments.

human Mu receptor = target: T7, human Mu receptor (Homo sapiens, UniProt P35372); test: Calcium mobilisation, CHO cells with Mu and Gαqi5; assay type: cell-based
T7 construct: expressed in transfected cells; host or cells: CHO

Mu receptor (CHOhMu) [9] = target: T6, Mu receptor (CHOhMu); test: GTPγ[35S] binding, CHOhMu membranes; assay type: biochemical
NOP receptor (CHOhNOP) [10] = target: T5, NOP receptor (CHOhNOP); test: GTPγ[35S] binding, CHOhNOP membranes; assay type: biochemical
[11] = target: T1, Delta receptor (CHOhDelta); test: GTPγ[35S] binding, CHOhDelta membranes; assay type: biochemical
[12] = target: T8, human Mu receptor (Mu-RLuc/Gβ1-RGFP) (Homo sapiens, UniProt P35372); test: BRET Mu-RLuc/Gβ1-RGFP interaction, SH-SY5Y membranes; assay type: biochemical
T8 construct: expressed in transfected cells; host or cells: SH-SY5Y (retroviral expression; membranes used)

human NOP receptor = target: T9, human NOP receptor (Homo sapiens, UniProt P41146); test: Calcium mobilisation, CHO cells with NOP and Gαqi5; assay type: cell-based
T9 construct: expressed in transfected cells; host or cells: CHO
T9 sequence (P41146 whole entry): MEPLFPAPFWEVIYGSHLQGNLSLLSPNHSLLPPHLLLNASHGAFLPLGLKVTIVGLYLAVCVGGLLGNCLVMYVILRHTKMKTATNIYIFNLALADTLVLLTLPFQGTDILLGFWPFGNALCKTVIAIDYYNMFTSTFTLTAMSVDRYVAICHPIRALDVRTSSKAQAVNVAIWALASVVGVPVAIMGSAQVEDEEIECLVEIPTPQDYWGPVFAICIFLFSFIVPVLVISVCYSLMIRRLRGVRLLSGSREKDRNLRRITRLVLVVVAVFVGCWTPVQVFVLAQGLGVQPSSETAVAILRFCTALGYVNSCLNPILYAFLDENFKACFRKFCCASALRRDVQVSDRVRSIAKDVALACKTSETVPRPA

T5 sequence (P41146 whole entry): as above
T1 sequence (P41143 whole entry): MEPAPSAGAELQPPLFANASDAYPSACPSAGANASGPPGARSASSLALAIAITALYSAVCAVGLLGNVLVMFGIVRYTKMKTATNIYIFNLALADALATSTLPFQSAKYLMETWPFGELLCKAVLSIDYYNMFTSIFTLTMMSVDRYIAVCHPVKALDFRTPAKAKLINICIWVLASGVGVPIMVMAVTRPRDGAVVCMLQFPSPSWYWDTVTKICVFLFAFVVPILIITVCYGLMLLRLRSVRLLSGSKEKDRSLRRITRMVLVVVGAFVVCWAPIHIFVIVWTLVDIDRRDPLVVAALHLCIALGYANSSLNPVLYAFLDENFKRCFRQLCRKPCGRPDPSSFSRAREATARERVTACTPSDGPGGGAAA
T7 sequence (P35372 whole entry): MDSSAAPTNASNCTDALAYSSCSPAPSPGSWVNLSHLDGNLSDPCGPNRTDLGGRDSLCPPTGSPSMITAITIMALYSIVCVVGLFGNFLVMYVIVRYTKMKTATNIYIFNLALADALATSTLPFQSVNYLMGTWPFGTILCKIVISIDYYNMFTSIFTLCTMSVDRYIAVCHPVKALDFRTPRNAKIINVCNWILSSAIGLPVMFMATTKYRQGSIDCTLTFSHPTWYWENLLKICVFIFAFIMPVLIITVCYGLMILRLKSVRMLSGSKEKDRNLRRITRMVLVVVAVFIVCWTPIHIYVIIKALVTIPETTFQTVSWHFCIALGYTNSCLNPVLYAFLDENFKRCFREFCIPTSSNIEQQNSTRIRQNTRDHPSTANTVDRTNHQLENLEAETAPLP
T6 sequence (P35372 whole entry): as above
T2 sequence (P41145 whole entry): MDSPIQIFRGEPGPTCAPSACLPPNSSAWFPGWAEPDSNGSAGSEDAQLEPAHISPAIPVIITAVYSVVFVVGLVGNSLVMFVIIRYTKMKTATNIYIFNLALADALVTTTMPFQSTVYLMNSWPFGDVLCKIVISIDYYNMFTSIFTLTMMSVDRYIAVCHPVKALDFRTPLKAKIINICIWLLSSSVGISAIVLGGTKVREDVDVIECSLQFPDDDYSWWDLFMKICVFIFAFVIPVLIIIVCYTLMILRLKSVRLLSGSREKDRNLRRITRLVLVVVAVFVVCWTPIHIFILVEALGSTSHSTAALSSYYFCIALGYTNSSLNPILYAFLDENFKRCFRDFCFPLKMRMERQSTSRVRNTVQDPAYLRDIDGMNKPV
T3 sequence (P41146+P27652 fused): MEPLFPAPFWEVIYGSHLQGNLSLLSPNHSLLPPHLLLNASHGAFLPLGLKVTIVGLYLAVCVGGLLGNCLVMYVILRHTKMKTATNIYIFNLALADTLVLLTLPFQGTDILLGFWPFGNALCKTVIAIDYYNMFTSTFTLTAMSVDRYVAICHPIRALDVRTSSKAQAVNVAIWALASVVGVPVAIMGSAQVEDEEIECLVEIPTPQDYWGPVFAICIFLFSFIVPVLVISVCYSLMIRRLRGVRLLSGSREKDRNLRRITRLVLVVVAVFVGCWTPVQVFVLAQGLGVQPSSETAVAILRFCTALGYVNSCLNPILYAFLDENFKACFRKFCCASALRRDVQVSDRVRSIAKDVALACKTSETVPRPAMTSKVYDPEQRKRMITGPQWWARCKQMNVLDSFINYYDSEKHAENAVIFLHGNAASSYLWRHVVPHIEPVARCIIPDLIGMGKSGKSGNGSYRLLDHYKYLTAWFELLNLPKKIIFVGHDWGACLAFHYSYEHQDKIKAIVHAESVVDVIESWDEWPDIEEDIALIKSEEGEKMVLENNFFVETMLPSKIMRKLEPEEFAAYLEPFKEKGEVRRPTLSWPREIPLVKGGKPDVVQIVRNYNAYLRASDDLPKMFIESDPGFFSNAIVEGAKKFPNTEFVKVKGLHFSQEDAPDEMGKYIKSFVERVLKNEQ
T3 sequence (P32121 whole entry partner): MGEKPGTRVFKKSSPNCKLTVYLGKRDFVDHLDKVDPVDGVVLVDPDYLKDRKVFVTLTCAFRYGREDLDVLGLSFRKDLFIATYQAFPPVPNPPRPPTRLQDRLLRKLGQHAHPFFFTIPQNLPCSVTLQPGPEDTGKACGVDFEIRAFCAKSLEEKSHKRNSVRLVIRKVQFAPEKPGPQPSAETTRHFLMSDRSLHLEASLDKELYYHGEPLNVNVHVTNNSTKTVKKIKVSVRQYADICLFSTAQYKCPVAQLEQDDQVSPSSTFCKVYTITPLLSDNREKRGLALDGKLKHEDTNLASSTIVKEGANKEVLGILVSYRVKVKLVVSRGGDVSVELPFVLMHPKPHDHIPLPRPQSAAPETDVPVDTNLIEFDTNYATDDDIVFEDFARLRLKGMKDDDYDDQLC
T8 sequence (P35372 whole entry, looked up): as the sequence (P35372 whole entry) above
T4 sequence (P35372+P27652 fused): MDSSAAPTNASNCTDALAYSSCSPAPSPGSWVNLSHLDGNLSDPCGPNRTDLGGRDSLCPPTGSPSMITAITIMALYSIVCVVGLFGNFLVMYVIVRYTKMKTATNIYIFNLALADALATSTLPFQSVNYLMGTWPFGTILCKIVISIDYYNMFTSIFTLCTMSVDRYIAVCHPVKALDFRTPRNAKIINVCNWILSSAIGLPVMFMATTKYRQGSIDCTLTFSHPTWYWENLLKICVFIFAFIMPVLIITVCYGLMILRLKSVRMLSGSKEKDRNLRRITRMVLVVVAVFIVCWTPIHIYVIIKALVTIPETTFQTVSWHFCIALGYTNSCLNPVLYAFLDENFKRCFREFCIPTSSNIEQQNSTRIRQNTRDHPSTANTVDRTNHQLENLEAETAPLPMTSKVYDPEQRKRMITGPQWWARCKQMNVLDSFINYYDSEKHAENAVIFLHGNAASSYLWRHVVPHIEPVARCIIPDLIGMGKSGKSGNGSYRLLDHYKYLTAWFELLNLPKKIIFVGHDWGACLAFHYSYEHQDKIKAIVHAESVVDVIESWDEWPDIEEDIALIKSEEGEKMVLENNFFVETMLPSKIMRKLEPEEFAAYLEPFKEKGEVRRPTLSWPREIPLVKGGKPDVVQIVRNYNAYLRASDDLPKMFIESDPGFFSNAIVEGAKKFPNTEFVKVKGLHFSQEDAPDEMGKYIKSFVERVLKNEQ
T4 sequence (P32121 whole entry partner): as the sequence (P32121 whole entry partner) above
human NOP receptor (NOP-RLuc/Gβ1-RGFP), sequence (P41146 whole entry, looked up): as the sequence (P41146 whole entry) above

## CC(C)C[C@H](NC(=O)[C@H](CCCCN)NC(=O)[C@H](CCCNC(=N)N)NC(=O)[C@H](C)NC(=O)[C@H](CO)NC(=O)[C@H](CCCCN)NC(=O)[C@H](CCCNC(=N)N)NC(=O)[C@H](C)NC(=O)CNC(=O)[C@@H](NC(=O)[C@H](Cc1ccccc1)NC(=O)CNC(=O)CNC(=O)[C@@H](N)Cc1ccccc1)[C@@H](C)O)C(=O)N[C@@H](C)C(=O)N[C@@H](CC(N)=O)C(=O)N[C@@H](CCC(N)=O)C(=O)N[C@@H](CSC1CC(=O)N(CCCC(=O)NCCCC[C@H](NC(=O)[C@H](CO)NC(=O)[C@@H]2CCCN2C(=O)[C@H](Cc2ccc(O)cc2)NC(=O)CNC(=O)[C@H](Cc2ccccc2)NC(=O)[C@@H](C)NC(=O)[C@@H](N)Cc2ccc(O)cc2)C(N)=O)C1=O)C(N)=O (stereo partly drawn) [DeNo]
[1]
  Ki: 7.59 nM
[2]
  EC50: 1200 nM
[3]
  Ki: 45.7 nM
[4]
  EC50: 6.46 nM
[5]
  EC50: 437 nM
NOP receptor (CHOhNOP) [6]; SEM
  Ki: 0.0603 nM
NOP receptor (CHOhNOP) [6]; from pKi values
  NOP selectivity over Mu in binding: ~ 5 fold
[7]
  EC50: 0.955 nM
Mu receptor (CHOhMu) [8]
  Ki: 0.282 nM
rats
  animal performance in the rotarod test: impaired animal performance in the rotarod test
Human Mu receptor
  EC50: 67.6 nM
Human Mu receptor; calcium mobilisation, % over basal fluorescence, CHO cells with human Mu and Gαqi5, at least 3 experiments in duplicate, SEM
  Emax: 209 ± 15%
Mu receptor (CHOhMu) [9]
  EC50: 17 nM
NOP receptor (CHOhNOP) [10]
  EC50: 0.316 nM
[11]
  EC50: 166 nM
[12]
  EC50: 9.77 nM
Human NOP receptor
  EC50: 0.204 nM
Human NOP receptor; calcium mobilisation, % over basal fluorescence, CHO cells with human NOP and Gαqi5, at least 3 experiments in duplicate, SEM
  Emax: 244 ± 6%
